Test results: patent US4350700A, “Pharmaceutical composition containing 1,3,5-substituted biuret compound” (Taiho Pharmaceutical Company, Limited, priority 1979, dated 1982)
Where two headings read alike, the source gives them in different places.

Key:
ddy strain of male mice = assay: Acute toxicity (oral, general symptom and death observed for 7 days); format: in vivo; settings: 7 days
Procedure: (§1) Next, several tests for determining the pharmacological properties, in that acute toxicity, anti-pyretic activity, analgesic activity and anti-inflammatory activity of the present 1,3,5-substituted biuret compounds of the formula (1) were conducted and the test results are shown in Table (2). In the tests, each compounds to be tested was used as a suspension in 0.25% carboxymethylcellulose solution. Methods for testing are explained as follows:
The ddy strain of male mice (body weight, 20-25 g) were used as test animals. The mice were fasted overnight and the compound to be tested was administered orally. […] The lethal dose (mg/kg, body weight) of the test compound was determined in connection with the death number of mice/the number of mice tested. In Table 2, the values indicated with Δ marks are 50% lethal dose, LD50 (mg/kg, body weight).

[1] = system: 10% dry-yeast suspension-induced fever of rats; assay: Anti-pyretic activity (dry-yeast induced fever, febril index); format: in vivo, rats (Wistar strain, male); settings: oral, febril index up to 4 hours after administration, dose not stated
Procedure: as §1
According to the method reported by Tanabe [Folia Pharmacologia Japonica, Vol. 73, pp. 803 (1977)], the Wistar strain of male rats (150-180 g body weight) were used as test animals. The rats were fasted overnight, and 1 ml/100 g (body weight) of 10% dry-yeast suspension were subcutaneously injected on the back of the rats. Five hours afte the injection, the test compound was administered orally, then the body temperature of the rat was measured time sequences. Anti-pyretic activity of the test compound was determined as the FI (febril index) by integrating pyrogenetic curve up to 4 hours after the administration of the test compound with time, and indicated as inhibitory ratio (%) shown by the following formula, [formula]

[2] = system: acetic acid-induced stretching symptom of mouse; assay: Analgesic activity, acetic acid-induced stretching method; format: in vivo, mice (ddy strain, male); settings: read-out: Analgesic activity, acetic acid-induced stretching method, inhibitory ratio
Procedure: as §1
(1) Acetic acid-induced stretching method
According to the method reported by Koster et.al., [Fed. Proc., Vol. 18, pp. 412 (1959)], the ddy strain of male mice (body weight, 20-25 g) were used as test animals. The mice were fasted overnight, 100 mg/kg body weight of the test compound was administered orally, then 1 hour after the administration, 0.2 ml of 0.7% acetic acid solution was injected intraperitoneally. The acetic acid-induced stretching symptom of mouse was observed. Analgesic activity of the test compound was calculated as the inhibitory ratio (%). In Table 2, the values in parentheses show the data obtained from the test by using the dosage other than 100 mg/kg body weight. Further, the values indicated with Δ marks show 50% effective dose, ED50 (mg/kg body weight).

[3] = system: pain reaction of the mouse caused by a clamp; assay: Analgesic activity, Haffner method; format: in vivo, mice (ddy strain, male); settings: for Analgesic activity, Haffner method, inhibitory ratio: 100 mg/kg oral, mice
Procedure: as §1
According to the modified method reported by Fujimura et al., [Bulletin of the Institute for Chemical Research, Kyoto University, No. 25, pp. 36 (1951)], the ddy strain of male mice (body weight, 20-25 g) were used as test animals. The mice were fasted overnight, 100 mg/kg body weight of the test compound was administered orally, then 45 minutes after the administration, the threshhold amount (1.5-2.5 mg/kg body weight) of morphine hydrochloride was injected subcutaneously. Then 1-hour pain reaction of the mouse caused by a clamp was observed. Analgesic activity of the test compound was calculated as the inhibitory ratio (%). In Table 2, the values in parentheses show the data obtained from the test by using the dosage other than 100 mg/kg body weight. Further, the values indicated with Δ marks show 50% effective dose, ED50 (mg/kg body weight).

[4] = system: carrageenin-induced inflammation of the hindpaw of the rat; assay: Anti-inflammatory activity, acute carrageenin-induced inflammatory test; format: in vivo, rats (Wistar strain, male); settings: Rattus norvegicus, read-out: Anti-inflammatory activity, inflammation inhibitory ratio
Procedure: as §1
4. Anti-inflammatory Activity
According to the method of acute carrageenin-induced inflammatory test [Folia Pharmacologia Japonica, Vol. 56, pp. 575 (1960)], the Wistar strain of male rats (body weight, 150-180 g) were used as test animals. The rats were fasted overnight, 100 mg/kg body weight of the test compound was administered orally, then 1 hour after the administration, 0.1 ml of 1% carrageenin solution, as the inflammation inducing agent, was injected subcutaneously to the hindpaw of the rat and the volume of the hindpaw was measured at time sequences. Anti-inflammatory activity of the test compound was calculated as inflammation inhibitory ratio (%) at 3 hours after the injection of inflammation inducing agent.

[5] = 100 mg/kg oral, rats, 3 hours after carrageenin

SMILES	Acute toxicity, death number of mice/number of mice tested (ddy strain of male mice; 2000 mg/kg oral)	Anti-pyretic activity, inhibitory ratio [1] [%]	inhibition in vivo at 100 mg/kg ([2]; po) [%]	Analgesic activity, Haffner method, inhibitory ratio [3] [%]	inhibition in vivo at 100 mg/kg ([4]; po, 3 h) [%]	Acute toxicity, death number of mice/number of mice tested (ddy strain of male mice; 1000 mg/kg oral)	inhibition in vivo at 100 mg/kg [4, 5] [%]	inhibition in vivo at 40 mg/kg ([2]; po) [%]	ED50 ([3]; Mus musculus, oral, mice (Δ values; range in parentheses), read-out: Analgesic activity, Haffner method, 50% effective dose ED50) [mg/kg]	inhibition in vivo at 100 mg/kg ([2]; 100 mg/kg oral, mice) [%]
CC(C)NC(=O)N(C)C(=O)Nc1ccccc1 [Compound No. 43, 1-Isopropyl-3-methyl-5-phenylbiuret]	0/4	38	50	25	51	–	–	–	–	–
C=CCNC(=O)N(C)C(=O)Nc1ccccc1 [Compound No. 45]	4/4	125	50	12.5	59	2/4	–	–	–	–
CCCCNC(=O)N(C)C(=O)Nc1ccccc1 [Compound No. 47]	0/4	19	75	62.5	–	–	27	–	–	–
CC(C)CNC(=O)N(C)C(=O)Nc1ccccc1 [Compound No. 49, 1-Isobutyl-3-methyl-5-phenylbiuret]	0/4	55	–	–	–	–	57	50	50	–
CNC(=O)N(C)C(=O)Nc1cc(C)ccn1 [compound 17]	3/4	55	–	25	33	0/4	–	–	–	25
CNC(=O)N(C)C(=O)Nc1nccs1 [compound 20]	–	112	–	25	–	3/4	46	–	–	25
CCNC(=O)N(C)C(=O)Nc1ccc(N(C)C)cc1 [compound 33, 1-Ethyl-3-methyl-5-(4-dimethylaminophenyl)biuret]	4/4	87	62.5	25	30	0/4	–	–	–	–
CCNC(=O)N(C)C(=O)Nc1ccc(OC)cc1 [compound 35, 1-Ethyl-3-methyl-5-(4-methoxyphenyl)biuret]	4/4	112	–	62.5	–	0/4	19	–	–	87.5
CCC(C)NC(=O)N(C)C(=O)Nc1ccccc1 (stereo not drawn) [compound 50, 1-(1-Methylpropyl)-3-methyl-5-phenylbiuret]	0/4	27	62.5	25	47	–	–	–	–	–
CN(C(=O)Nc1ccccc1)C(=O)NC(C)(C)C [compound 51, 1-tert-Butyl-3-methyl-5-phenylbiuret]	0/4	83	50	37.5	–	–	34	–	–	–
